Reference: US20200325487A1, “A COM[…] FOR REDUCING RANDOM I[…] WHEN TR[…]” (UNIVERSITEIT LEIDEN, priority 2017, published 2020)

Assays:
[1] = system: wild type, ku80, mre11-2 and ku80mre11-2 mutant seedlings; assay: Assays for sensitivity to bleomycin and methyl methane sulfonate (MMS); assay type: in vivo, Arabidopsis thaliana; conditions: ku80mre11-2 double mutant, 0.02, 0.05 μg/ml bleomycin or 0.005%, 0.01% MMS; for fresh weight of double mutant plants in comparison with wild type and each of the single mutants: 10-days-old plate-grown plants; for growth phenotype of double mutant compared with each of the single mutants: scored 2 weeks after germination
Procedure: Seeds of wild type, ku80, mre11-2 and ku80mre11-2 mutants were surface-sterilized as described (Weijers et al. 2001) and germinated on solid % MS medium without additions or containing 0.02 μg/ml or 0.05 μg/ml bleomycin (Sigma), 0.005% (v/v), 0.007% or 0.01% MMS (Sigma) and photographed after 2 weeks. After 10 days growth, the fresh weight (compared with controls) was determined by weighing the seedlings in batches of 20 in duplicate. Statistical analyses were performed using Prism version 5 (GraphPad Software Inc.).

[2] = system: root tips of Arabidopsis seedlings (wild type, ku80, mre11-2, ku80mre11-2); assay: Cell death assay (propidium iodide staining of root tips); assay type: in vivo, Arabidopsis thaliana; conditions: 0.05 μg/ml bleomycin for 1 day and 4 days; 4-d-old seedlings; more cell death in ku80mre11-2 double mutant
Procedure: Four days old seedlings on MS-agar plates were transferred to new MS-plates with DNA damaging agents. After one or four days treatments, the seedlings were placed in propidium iodide solution (PI, Sigma-Aldrich, 5 μg/ml in water) for 1 min and rinsed three times with water. Root tips were then transferred to slides in a drop of water and covered with a cover slip for observation under the fluorescence microscope.

Compound | fresh weight of double mutant plants in comparison with wild type and each of the single mutants [1] | growth phenotype of double mutant compared with each of the single mutants [1] | cell death in the root meristem (PI staining) [2]
COS(C)(=O)=O [MMS, Methyl Methane Sulfonate] | dramatically reduced | grew more slowly and developed fewer true leaves | 
bleomycin | dramatically reduced | grew more slowly and developed fewer true leaves | caused cell death in the root meristem of both wild type and the mutants
